Reference: patent US20260337187A1, “COMPOUNDS FOR TREATMENT OF INFLAMMATORY PROCESSES” (THORNE LIMITED, priority 2022, published 2026)

Key:
Type in all cases: cell-based
[1] = system: human primary eosinophils; assay: Eosinophil ROS production (PMA triggered, DHR-123, FACS); conditions: FIG. 7 (100, 50, 25 μM)
Description: The effect of 3 different concentrations (from right to left: 100, 50 and 25 μM) of B2 is shown in comparison to control (far left) and ROS triggered control (PMA; second from left); average of 3 experiments.
Eosinophil ROS production: Human primary eosinophils were purified from buffy coat, firstly by density gradient centrifugation on ficoll to isolate total peripheral blood mononuclear cell (PBMC), and then by negative selection using the eosinophil purification kit from Miltenyi Inc. as per manufacturer's instructions. The eosinophils were then resuspended in pre-warmed tissue culture media, which had been left in the incubator overnight to equilibrate, containing 25 μM dihydrorhodamine 123 (DHR-123) at a cell density of 1×10^6 cells/ml. The cells were then stimulated with phorbol 12-myristate 13-actetate (PMA) at a concentration of 1 μM in the presence or absence of B2 or DMSO for control in the incubator for 20 minutes and then immediately put on ice to stop the reaction. Levels of the oxidized DHR in the samples were measured by flow cytometry as described above in relation to neutrophil ROS production.
To investigate inhibition of eosinophil ROS production by B2, human primary eosinophils, isolated from fresh blood samples, were triggered to produce ROS by treatment with PMA, and ROS measured by FACS based on the conversion of dihydrorhodamine 123 to rhodamine 123 (FIG. 7).

primary human mast cells = assay: Mast cell cytokine release (cytokine array); conditions: 100 μM B2, 24 h, IgE/anti-IgE
Description: FIG. 8 is a plot showing average relative intensity of cytokine levels relative to control showing the modulation of mast cell cytokine release by B2. Average of 3 experiments.
Mast cell cytokine release: Primary human mast cells developed in culture from CD34+ precursors as described above in relation to mast cell degranulation were stimulated at a cell density of 0.8×10^6 cells/ml by 0.12 mg/ml IgE and 0.1 μg/ml anti-IgE in mast cell medium (StemSpan SFEM including 100 ng/ml SCF, 50 ng/ml IL6, 2 & FBS, and 1% Pen/Strep). Simultaneously, the cells were treated with 100 μM B2, and cytokine levels present in the culture supernatants were measured after 24 h. The levels of 105 cytokines were measured by the R&D Systems Human XL cytokine array as per manufacturer's instructions. The signals were measured by a fluorescence-based photometric read-out in the Li—COR Odyssey Fluorescent imaging system, and the spots quantified by Fiji software.
To investigate the modulation of mast cell cytokine release by B2, primary human mast cells were stimulated by IgE/anti-IgE, treated with 100 μM B2, and cytokine levels present in the culture supernatants measured after 24 h. The levels of 105 cytokines were measured by the R&D Systems Human XL cytokine array and a fluorescence-based photometric read-out.

primary human B cells = assay: B lymphocyte plasmablast development (CD38+/CD19low and CD138+ by FACS); conditions: 5 days; FIG. 4 (20 and 10 μM)
Description: The effect of two concentrations (from right to left: 20 and 10 μM) of B2 is shown in each plot in comparison to control (far left). Each symbol represents one experiment.
B lymphocyte plasmablast development: For human B lymphocyte plasmablast development, primary human B cells were isolated from buffy coat using the MACSxpress Buffy Coat Pan B Cell Isolation Kit (Miltenyi Biotec) as per manufacturer's instructions. The cells were cultured in RPMI in the presence of human transferrin (20 μg/ml), IL-21 (100 ng/ml), recombinant hCD40L (100 μg/ml), anti-HA (50 μg/ml), at a cell density of 5×10^4 cells/ml. Plasmablast formation after 5 days was measured by FACS using two sets of markers: CD38+/CD19low and CD138+ for two stages of plasmablast development.
To investigate the inhibition of B lymphocyte plasmablast development by B2, primary human B cells, isolated from buffy coat, were cultured in the presence of CD40, IL21, anti-IgM, and plasmablast formation measured by FACS using two sets of markers: CD38+/CD19low (FIG. 4, upper plot) and CD138+(FIG. 4, lower plot) for two stages of plasmablast development.

[2] = system: human primary neutrophils; assay: Neutrophil NETosis (PMA or pyocyanin triggered, extracellular DNA, Sytox Green); conditions: 3 hours (FIG. 3)
Description: The effect of 3 different concentrations (from left to right for each treatment: 100, 50 and 20 μM) of B2 is shown as % reduction compared to untreated control; average of 3 experiments.
Neutrophil NETosis: Neutrophil production of extracellular traps, NETosis, was measured on human primary neutrophils, isolated from fresh blood samples as described above or by Pancoll gradient centrifugation. Neutrophils in RPMI at 4×10^6 cells/ml were triggered to undergo NETosis in wells of a 96-well plate at a total cell number of 2×10^5 cells per well. The cells were treated for 3 hours with either the […] phorbol myristate acetate (100 nM PMA) or the bacterial product pyocyanin (at 10 μM). Extracellular DNA was measured by fluorometry using the dye Sytox™ Green and/or by fluorescence microscopy.
To investigate the effect of B2 on neutrophil NETosis, human primary neutrophils, isolated from fresh blood samples, were triggered to undergo NETosis (the expulsion of DNA in the environment) by treatment for 3 hours with either the […] phorbol myristate acetate (PMA) or the bacterial product pyocyanin. Extracellular DNA was measured by photometry using the dye Sytox™ Green.

Cc1onc(-c2ccccc2Cl)c1C(=O)Nc1nc2ccc([N+](=O)[O-])cc2s1 [B2, 3-(2-chlorophenyl)-5-methyl-N-(6-nitrobenzo[d]thiazol-2-yl)isoxazole-4-carboxamide]
production of reactive oxygen species (ROS) by human primary eosinophils [1]: reduced production
mast cell cytokine release profile (primary human mast cells): reducing specific pro-inflammatory cytokines
human B cell plasmablast development (primary human B cells): inhibition of human B cell plasmablast development
neutrophil NETosis [2]: substantially reduced
